What all share (test): NCI tumour cell line growth inhibition, 48 h
In experiment [1] the test system is NCI-H23.
For experiment [2], the system named is HCT-116.
The subject of experiment [3] is IGROV-1.
In experiment [4] the test system is MDA-N.
Experiment [5] relates to MOLT-4.
Experiment [6] relates to M14.
The subject of experiment [7] is NCI-H226.
Experiment [8] relates to MDA-MB-231.
For experiment [9], the system named is UACC-257.
Experiment [10] has as its system HOP-62.
Experiment [11] deals with SNB-75.
Experiment [12] relates to KM12.
Experiment [13] has as its system SK-MEL-2.
Experiment [14] deals with SNB-19.
Experiment [15] has as its system SK-MEL-5.
The test system of experiment [16] is LOX IMVI.
For experiment [17], the system named is SF-539.
Experiment [18] has as its system OVCAR-5.
Experiment [19] has as its system K562.
The subject of experiment [20] is COLO 205.

The structures appear in SMILES notation.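 Five concentrations, 48 hours, 96-well plates. Abbreviation: GI50, concentration required for 50% inhibition of growth.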 The source made the active and inactive calls. Rule as the data show it: active = GI50 up to about 1.1 µM and inactive = higher.

`Clc1ccc2[nH]c(CC3CCCC3)nc2c1`: the GI50 in [1] is 15.1 µM (inactive); in [2] it was 16.1 µM (inactive); in experiment [3], 4.29 µM (inactive); in [4], 10 µM (inactive); in experiment [5] it was 11 µM (inactive); in experiment [6], 18.3 µM (inactive). Further, the GI50 was 17.7 µM (inactive) in experiment [7]; 17.7 µM (inactive) in experiment [8]; 88.1 µM (inactive) in experiment [9]; 15.6 µM (inactive) in experiment [10]; 24.4 µM (inactive) in [11]; 14.5 µM (inactive) in experiment [12]. Besides, the GI50 was 17.9 µM (inactive) in experiment [13]; 23.4 µM (inactive) in experiment [14]; 11 µM (inactive) in [15]; 15.8 µM (inactive) in [16]; 21.4 µM (inactive) in experiment [17]; 24.5 µM (inactive) in [18]. Also, the GI50 is 3.14 µM (inactive) in [19] and 14.2 µM (inactive) in [20].
As for `NC1=NC2(COC(c3ccccc3)(c3ccccc3)c3ccccc3)OC(COC(c3ccccc3)(c3ccccc3)c3ccccc3)C(O)C2O1` (stereo not given), the GI50 in experiment [1] was 23.1 µM (inactive); in experiment [2] it was 38.3 µM (inactive); in experiment [3] it was 21.8 µM (inactive); in experiment [4], 85.1 µM (inactive); in experiment [5], 13.2 µM (inactive); in [6], > 100 µM (inactive). Moreover, the GI50 was 24.2 µM (inactive) in experiment [7]; 67.1 µM (inactive) in experiment [8]; 51.2 µM (inactive) in experiment [9]; > 100 µM (inactive) in [10]; < 0.01 µM (active) in [11]; 21.6 µM (inactive) in experiment [12]. Also, the GI50 in experiment [13] was 5.77 µM (inactive); in experiment [14] it was 23 µM (inactive); in experiment [15] it was 26.1 µM (inactive); in experiment [16], > 100 µM (inactive); in [17] it was 71.6 µM (inactive); in experiment [18], 81.7 µM (inactive). Also, the GI50 in experiment [19] is 21.8 µM (inactive); in experiment [20], 67.1 µM (inactive).
Consider `OC[C@H](O)[C@@H](OCc1ccccc1)[C@H](NCc1ccccc1)c1cccs1`, for which the GI50 in [1] is 55.7 µM (inactive); in experiment [2], 99.5 µM (inactive); in [3], 75.5 µM (inactive); in experiment [4], > 100 µM (inactive); in experiment [5] it was > 100 µM (inactive); in experiment [6] it was > 100 µM (inactive). In addition, the GI50 was > 100 µM (inactive) in experiment [7]; > 100 µM (inactive) in experiment [8]; > 100 µM (inactive) in experiment [9]; > 100 µM (inactive) in experiment [10]; 65.3 µM (inactive) in [11]; > 100 µM (inactive) in experiment [12]. In addition, the GI50 in [13] is > 100 µM (inactive); in experiment [14], 21.4 µM (inactive); in experiment [15], > 100 µM (inactive); in [16], > 100 µM (inactive); in experiment [17] it was > 100 µM (inactive); in [18] it was > 100 µM (inactive). Further, the GI50 in experiment [19] and in experiment [20] was > 100 µM (inactive) each time.
As to `O=C1CCCc2cc3c(cc21)CCC3C(=O)O` (stereo not given), the GI50 in experiment [1], in [2], in experiment [3], in experiment [4], in experiment [5] and in experiment [6] was > 100 µM (inactive) each time. Moreover, the GI50 in experiment [7], in experiment [8], in experiment [9], in experiment [10], in [11] and in experiment [12] was > 100 µM (inactive) throughout. Besides, the GI50 in experiment [13], in experiment [14], in [15], in experiment [16], in experiment [17] and in experiment [18] was > 100 µM (inactive) each time. Besides, the GI50 in [19] and in experiment [20] was > 100 µM (inactive) each time.
Turning to `CC(C)C(=O)CC(Sc1ccc(N)cc1)c1ccccc1` (stereo not given), the GI50 in experiment [1] was 21.9 µM (inactive); in experiment [2], 13.3 µM (inactive); in experiment [3], 44.1 µM (inactive); in experiment [4], 16 µM (inactive); in experiment [5] it was 25.1 µM (inactive); in experiment [6], 30.4 µM (inactive). In addition, the GI50 in experiment [7] is 46.5 µM (inactive); in experiment [8] it was 22.3 µM (inactive); in experiment [9], 33.6 µM (inactive); in experiment [10] it was 37.1 µM (inactive); in experiment [11], 32.6 µM (inactive); in experiment [12], 22.5 µM (inactive). Moreover, the GI50 is 23.3 µM (inactive) in [13]; 48.5 µM (inactive) in experiment [14]; 20.4 µM (inactive) in [15]; 16.6 µM (inactive) in experiment [16]; 30.5 µM (inactive) in experiment [17]; 29.4 µM (inactive) in [18]. In addition, the GI50 in experiment [19] is 25.4 µM (inactive); in experiment [20], 33.2 µM (inactive).
In the case of `O=C1CCCC1CN1CCCC1` (stereo not given), the GI50 in experiment [1] was 15.3 µM (inactive); in experiment [2], 3.44 µM (inactive); in experiment [3], 10.6 µM (inactive); in [4], 13.5 µM (inactive); in [5], 0.206 µM (active); in experiment [6], 1.67 µM (inactive). The GI50 in experiment [7] is 46.2 µM (inactive); in [8], 15.5 µM (inactive); in experiment [9] it was 15.2 µM (inactive); in experiment [10], > 67 µM (inactive); in experiment [11], 17.1 µM (inactive); in experiment [12], 16.1 µM (inactive). The GI50 in experiment [13] is 7.14 µM (inactive); in experiment [14] it was > 100 µM (inactive); in [15], 18 µM (inactive); in experiment [16], 8.75 µM (inactive); in [17], 18.8 µM (inactive); in [18], 18.3 µM (inactive). For the same compound, the results for the GI50 in experiment [19] and in experiment [20] were 0.251 µM (active) and 3.78 µM (inactive), respectively.
Regarding `CC(C)Nc1[nH]c(C(=O)c2ccccc2)c(N)c1C(=S)Nc1ccccc1`, the GI50 in [1] is > 100 µM (inactive); in experiment [2] it was 36.1 µM (inactive); in experiment [3] it was > 100 µM (inactive); in experiment [4], 40.4 µM (inactive); in experiment [5] it was 80.9 µM (inactive); in [6], 23.2 µM (inactive). Moreover, the GI50 in experiment [7] was 41.3 µM (inactive); in experiment [8] it was 28.5 µM (inactive); in experiment [9], 22.9 µM (inactive); in experiment [10], > 100 µM (inactive); in experiment [11], 69.3 µM (inactive); in [12], 31.7 µM (inactive). Moreover, the GI50 was 23.8 µM (inactive) in [13]; > 100 µM (inactive) in [14]; 28.9 µM (inactive) in experiment [15]; 23.2 µM (inactive) in experiment [16]; > 100 µM (inactive) in [17]; > 100 µM (inactive) in experiment [18]. Further, the values for the GI50 in experiment [19] and in experiment [20] were 60.8 µM (inactive) and 28.1 µM (inactive), respectively.
`COc1ccc(CCNC(=S)NC=C2C(=O)c3ccccc3C2=O)cc1OC`: the GI50 was > 100 µM (inactive) in experiment [1]; > 100 µM (inactive) in experiment [2]; > 100 µM (inactive) in experiment [3]; > 100 µM (inactive) in experiment [4]; 83.9 µM (inactive) in [5]; > 100 µM (inactive) in [6]. For the same compound, the GI50 in experiment [7] is > 100 µM (inactive); in [8], 68.1 µM (inactive); in experiment [9] it was > 100 µM (inactive); in [10], > 100 µM (inactive); in [11], 19.8 µM (inactive); in experiment [12], > 100 µM (inactive). Also, the GI50 in experiment [13] was > 100 µM (inactive); in experiment [14], > 100 µM (inactive); in [15], > 100 µM (inactive); in experiment [16], > 100 µM (inactive); in experiment [17], 0.433 µM (active); in experiment [18] it was > 100 µM (inactive). Also, the GI50 in experiment [19] and in experiment [20] was > 100 µM (inactive) in each case.
As for `CN(c1ccccc1Cl)S(=O)(=O)c1ccc([N+](=O)[O-])cc1`, the GI50 in [1], in [2], in experiment [3], in experiment [4], in [5] and in experiment [6] was > 100 µM (inactive) in each case. The GI50 in experiment [7], in experiment [8], in experiment [9], in experiment [10], in [11] and in experiment [12] was > 100 µM (inactive) each time. The GI50 in experiment [13], in experiment [14], in experiment [15], in [16], in experiment [17] and in experiment [18] was > 100 µM (inactive) throughout. Moreover, the GI50 in experiment [19] and in experiment [20] was > 100 µM (inactive) in each case.
For the compound `COc1cc(/C=C/C(=O)O)ccc1OS(=O)(=O)O`, the GI50 in [1], in experiment [2], in [3], in [4], in experiment [5] and in [6] was > 100 µM (inactive) in each case. For the same compound, the GI50 in [7], in experiment [8], in [9], in experiment [10], in experiment [11] and in experiment [12] was > 100 µM (inactive) throughout. For the same compound, the GI50 in experiment [13], in [14], in experiment [15], in [16], in experiment [17] and in experiment [18] was > 100 µM (inactive) each time. The GI50 in [19] and in [20] was > 100 µM (inactive) throughout.

Values taken from ChEMBL document CHEMBL1201862, “PubChem BioAssay data set” (2004).
